Legend:
Assay in all cases: 3H-thymidine assay
Type in all cases: cell-based
[1] = test system: At T 20; conditions: Mus musculus, AtT20
In short: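 Proliferation of AtT20 tumor cells was assessed by 3H-thymidine incorporation. 10^4 cells per well were seeded in 24-well plates and grown about 48 hours to half-confluence, then given medium with the active substance. Cells were washed twice in ice-cold PBS, high-molecular-weight 3H-radioactivity was precipitated with 5% trichloroacetic acid for one hour at 4° C, solubilized in 0.3M NaOH and counted.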

[2] = test system: K-562 leukemic cells; conditions: Homo sapiens, K562
In short: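 Antiproliferative activity against human K562 leukemia cells was measured by 3H-thymidine incorporation. Cells were seeded at 10^4 per well in 24-well plates and grown about 48 hours to half-confluence, then given medium containing the active substance. After two ice-cold PBS washes, macromolecular 3H was precipitated with 5% trichloroacetic acid for one hour at 4° C, dissolved in 0.3M NaOH and counted.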

[3] = test system: G-361 melanoma cells; conditions: Homo sapiens, G-361
[4] = test system: A-375 melanoma cells; conditions: Homo sapiens, A-375
[5] = test system: Z-R-75-1 breast cancer cells; conditions: Homo sapiens, ZR-75-1
[6] = test system: Tp 242 MG glioblastoma cells; conditions: Homo sapiens
[7] = test system: Tp 410 N neuroblastoma cells; conditions: Homo sapiens, Neuroblastoma cell
[8] = test system: Tp 483 MG glioblastoma cells
[9] = test system: GV-1 prostate carcinoma cells
[10] = test system: Daudi leukemic cells; conditions: Homo sapiens
[11] = 1 μM/ml, read-out: 3H-thymidine tracer (%) of control
[12] = 2 μM/ml, read-out: 3H-thymidine tracer (%) of control
[13] = 4 μM/ml, read-out: 3H-thymidine tracer (%) of control
[14] = 8 μM/ml, read-out: 3H-thymidine tracer (%) of control
[15] = 16 μM/ml, read-out: 3H-thymidine tracer (%) of control
[16] = 25 μM/ml, read-out: 3H-thymidine tracer (%) of control
[17] = 50 μM/ml, read-out: 3H-thymidine tracer (%) of control
[18] = 100 μM/ml, read-out: 3H-thymidine tracer (%) of control
[19] = 250 μM/ml, read-out: 3H-thymidine tracer (%) of control
[20] = 500 μM/ml, read-out: 3H-thymidine tracer (%) of control
[21] = Table 4, read-out: active substance concentration at which 3H-thymidine insertion was 50% inhibited
[22] = Table 4, *: maximum usable dosage, no 50% inhibition, read-out: active substance concentration at which 3H-thymidine insertion was 50% inhibited
[23] = 1 μM/ml, read-out: 3H-thymidine insertion (%) of control
[24] = 2 μM/ml, read-out: 3H-thymidine insertion (%) of control
[25] = 4 μM/ml, read-out: 3H-thymidine insertion (%) of control
[26] = 8 μM/ml, read-out: 3H-thymidine insertion (%) of control
[27] = 16 μM/ml, read-out: 3H-thymidine insertion (%) of control
[28] = 25 μM/ml, read-out: 3H-thymidine insertion (%) of control
[29] = 50 μM/ml, read-out: 3H-thymidine insertion (%) of control
[30] = 100 μM/ml, read-out: 3H-thymidine insertion (%) of control
[31] = 250 μM/ml, read-out: 3H-thymidine insertion (%) of control
[32] = 500 μM/ml, read-out: 3H-thymidine insertion (%) of control

Q: `O=c1ccc2cc(O)c(O)cc2o1` [Esculetin, 6,7-hydroxy-1,2-benzopyrone] was tested. Which activity at 1 µM [1, 11] did it give?
A: 93%

Q: And the activity at 2 µM [1, 12]?
A: 89%

Q: What about the activity at 4 µM [1, 13] of the same compound?
A: 86%

Q: And the activity at 8 µM [1, 14]?
A: 75%

Q: What about the activity at 16 µM [1, 15] of the same compound?
A: 75%

Q: What about the activity at 25 µM [1, 16] of the same compound?
A: 67%

Q: And the activity at 50 µM [1, 17]?
A: 62%

Q: What about the activity at 100 µM [1, 18] of the same compound?
A: 55%

Q: What about the activity at 250 µM [1, 19] of the same compound?
A: 49%

Q: And the activity at 500 µM [1, 20]?
A: 44%

Q: What about the IC50 [1, 21] of the same compound?
A: 250 µM

Q: And the activity at 1 µM [2, 11]?
A: 97%

Q: What about the activity at 2 µM [2, 12] of the same compound?
A: 95%

Q: And the activity at 4 µM [2, 13]?
A: 84%

Q: What about the activity at 8 µM [2, 14] of the same compound?
A: 77%

Q: And the activity at 16 µM [2, 15]?
A: 62%

Q: What about the activity at 25 µM [2, 16] of the same compound?
A: 58%

Q: And the activity at 50 µM [2, 17]?
A: 50%

Q: What about the activity at 100 µM [2, 18] of the same compound?
A: 47%

Q: And the activity at 250 µM [2, 19]?
A: 44%

Q: And the activity at 500 µM [2, 20]?
A: 31%

Q: What about the IC50 [2, 21] of the same compound?
A: 50 µM

Q: What about the activity at 1 µM [3, 11] of the same compound?
A: 97%

Q: What about the activity at 2 µM [3, 12] of the same compound?
A: 93%

Q: What about the activity at 4 µM [3, 13] of the same compound?
A: 90%

Q: What about the activity at 8 µM [3, 14] of the same compound?
A: 88%

Q: And the activity at 16 µM [3, 15]?
A: 72%

Q: And the activity at 25 µM [3, 16]?
A: 68%

Q: And the activity at 50 µM [3, 17]?
A: 60%

Q: What about the activity at 100 µM [3, 18] of the same compound?
A: 58%

Q: And the activity at 250 µM [3, 19]?
A: 52%

Q: What about the activity at 500 µM [3, 20] of the same compound?
A: 49%

Q: What about the IC50 [3, 22] of the same compound?
A: 500 µM

Q: What about the activity at 1 µM [4, 11] of the same compound?
A: 98%

Q: And the activity at 2 µM [4, 12]?
A: 91%

Q: What about the activity at 4 µM [4, 13] of the same compound?
A: 89%

Q: And the activity at 8 µM [4, 14]?
A: 84%

Q: And the activity at 16 µM [4, 15]?
A: 75%

Q: What about the activity at 25 µM [4, 16] of the same compound?
A: 70%

Q: What about the activity at 50 µM [4, 17] of the same compound?
A: 65%

Q: And the activity at 100 µM [4, 18]?
A: 63%

Q: And the activity at 250 µM [4, 19]?
A: 59%

Q: What about the activity at 500 µM [4, 20] of the same compound?
A: 55%

Q: And the IC50 [4, 22]?
A: > 500 µM

Q: What about the activity at 1 µM [5, 11] of the same compound?
A: 98%

Q: And the activity at 2 µM [5, 12]?
A: 96%

Q: And the activity at 4 µM [5, 13]?
A: 89%

Q: And the activity at 8 µM [5, 14]?
A: 84%

Q: What about the activity at 16 µM [5, 15] of the same compound?
A: 77%

Q: What about the activity at 25 µM [5, 16] of the same compound?
A: 70%

Q: What about the activity at 50 µM [5, 17] of the same compound?
A: 61%

Q: And the activity at 100 µM [5, 18]?
A: 53%

Q: And the activity at 250 µM [5, 19]?
A: 46%

Q: What about the activity at 500 µM [5, 20] of the same compound?
A: 39%

Q: What about the IC50 [5, 22] of the same compound?
A: 175 µM

Q: What about the activity at 1 µM [6, 23] of the same compound?
A: 96%

Q: What about the activity at 2 µM [6, 24] of the same compound?
A: 96%

Q: What about the activity at 4 µM [6, 25] of the same compound?
A: 89%

Q: And the activity at 8 µM [6, 26]?
A: 87%

Q: And the activity at 16 µM [6, 27]?
A: 75%

Q: And the activity at 25 µM [6, 28]?
A: 72%

Q: And the activity at 50 µM [6, 29]?
A: 60%

Q: What about the activity at 100 µM [6, 30] of the same compound?
A: 44%

Q: What about the activity at 250 µM [6, 31] of the same compound?
A: 32%

Q: What about the activity at 500 µM [6, 32] of the same compound?
A: 21%

Q: What about the IC50 [6, 21] of the same compound?
A: 75 µM

Q: What about the activity at 1 µM [7, 23] of the same compound?
A: 94%

Q: And the activity at 2 µM [7, 24]?
A: 86%

Q: And the activity at 4 µM [7, 25]?
A: 75%

Q: What about the activity at 8 µM [7, 26] of the same compound?
A: 69%

Q: And the activity at 16 µM [7, 27]?
A: 64%

Q: What about the activity at 25 µM [7, 28] of the same compound?
A: 48%

Q: What about the activity at 50 µM [7, 29] of the same compound?
A: 42%

Q: What about the activity at 100 µM [7, 30] of the same compound?
A: 40%

Q: What about the activity at 250 µM [7, 31] of the same compound?
A: 34%

Q: And the activity at 500 µM [7, 32]?
A: 29%

Q: And the IC50 [7, 21]?
A: 25 µM

Q: And the activity at 1 µM [8, 23]?
A: 98%

Q: What about the activity at 2 µM [8, 24] of the same compound?
A: 94%

Q: What about the activity at 4 µM [8, 25] of the same compound?
A: 85%

Q: What about the activity at 8 µM [8, 26] of the same compound?
A: 77%

Q: And the activity at 16 µM [8, 27]?
A: 73%

Q: What about the activity at 25 µM [8, 28] of the same compound?
A: 69%

Q: What about the activity at 50 µM [8, 29] of the same compound?
A: 62%

Q: What about the activity at 100 µM [8, 30] of the same compound?
A: 55%

Q: What about the activity at 250 µM [8, 31] of the same compound?
A: 39%

Q: And the activity at 500 µM [8, 32]?
A: 28%

Q: And the IC50 [8, 21]?
A: 150 µM

Q: And the activity at 1 µM [9, 11]?
A: 97%

Q: And the activity at 2 µM [9, 12]?
A: 93%

Q: What about the activity at 4 µM [9, 13] of the same compound?
A: 88%

Q: And the activity at 8 µM [9, 14]?
A: 84%

Q: What about the activity at 16 µM [9, 15] of the same compound?
A: 78%

Q: What about the activity at 25 µM [9, 16] of the same compound?
A: 75%

Q: And the activity at 50 µM [9, 17]?
A: 63%

Q: And the activity at 100 µM [9, 18]?
A: 60%

Q: And the activity at 250 µM [9, 19]?
A: 58%

Q: And the activity at 500 µM [9, 20]?
A: 50%

Q: And the IC50 [9, 21]?
A: 500 µM

Q: And the activity at 1 µM [10, 11]?
A: 94%

Q: What about the activity at 2 µM [10, 12] of the same compound?
A: 96%

Q: What about the activity at 4 µM [10, 13] of the same compound?
A: 83%

Q: What about the activity at 8 µM [10, 14] of the same compound?
A: 75%

Q: And the activity at 16 µM [10, 15]?
A: 69%

Q: What about the activity at 25 µM [10, 16] of the same compound?
A: 63%

Q: What about the activity at 50 µM [10, 17] of the same compound?
A: 61%

Q: What about the activity at 100 µM [10, 18] of the same compound?
A: 57%

Q: And the activity at 250 µM [10, 19]?
A: 54%

Q: What about the activity at 500 µM [10, 20] of the same compound?
A: 39%

Q: And the IC50 [10, 21]?
A: 250 µM
